Laboratory results taken from PMC8041674 (European Journal of Nuclear Medicine and Molecular Imaging, 2020).
Several values for one entry are separate records, joined by “and”; a condition that tells them apart may be missing. Identical values can stand only once. Like-named read-outs stand apart in the source and are kept apart here.

What was measured:
sigma-1 receptor (S1R) [1] = biological target: T1, sigma-1 receptor (S1R) (Homo sapiens, UniProt Q99720); assay: Test-retest [^18F] fluspidine PET substudy; assay type: in vivo; design: from tissue; host or cells: living human brain of male healthy volunteers and Huntington disease patients (in vivo PET); conditions: two HVs, no pridopidine, VT of first and second PET scan
Procedure: The test-retest variability of [18F]Fluspidine binding (VT) was estimated for two HVs (age 27.5±3.5 yrs; body weight 67.0±11.3 kg) from PET data acquired at the same time point of the day within 11 and 14 weeks. No pridopidine was administered before imaging. The test-retest variability was calculated using linear regression of the first and second PET scan. Test-retest analysis was performed to calculate the uncertainty of the RO estimate. As estimated by the slope values of the linear regression, the variability was 0.887 (11.3%; subject #1) and 1.008 (0.8%; subject #2)(Supplementary Fig. S7; Supplementary

plasma proteins = assay: [^18F] fluspidine binding to plasma proteins (ultracentrifugation); assay type: in vitro ADME; conditions: human, read-out: fraction of free tracer in plasma, not bound to plasma proteins
sigma-1 receptor (S1R) [2] = biological target: T1, sigma-1 receptor (S1R); assay: [^18F] fluspidine distribution volume (S1R availability), one-tissue compartment model; assay type: in vivo; design: from tissue; host or cells: living human brain of male healthy volunteers and Huntington disease patients (in vivo PET); VND, non-displaceable distribution volume: unit not given here
Description: Application of the linear regression

S1R = conditions: behaviorally effective doses, [^11C]SA4503 PET; cited from earlier work
sigma-1 receptor (S1R) [3] = biological target: T1, sigma-1 receptor (S1R); conditions: for mean RO (S1R): 90 mg pridopidine; for RO (%), sigma-1 receptor occupancy: PET 2 h post dose
Description: This PET study consists of three PET substudies: the [^18F] fluspidine substudy (HVs, n = 11, HD, n = 3), the [^18F] fallypride substudy (HVs, n = 4), and the test-retest [^18F] fluspidine substudy (HVs, n = 2). All subjects were assigned to only one PET substudy. Subjects in the [^18F] fluspidine or [^18F] fallypride substudies were investigated twice within 4 weeks at the same time point of the day.
The doses were not established a priori but were based on the receptor occupancy results from previous cohort subjects. […] Because we observed near to complete S1R occupancy with 90 mg, we reduced the next dose to approximately one fourth. […] The total distribution volume VT of [^18F] fluspidine in the brain was computed from the corresponding TACs and the metabolite-corrected arterial input function using a one-tissue compartment model (1TCM).
The receptor occupancy (RO) is defined as the drug treatment-induced reduction of the receptor density. The values of RO are between 0 (no receptor occupancy) and 1 (100% receptor occupancy). […] Here, it is assumed that the non-displaceable distribution volume VND and the receptor occupancy RO have the same value in all brain regions. Application of the linear regression
1 VTPET1−VTPET2=ROVTPET1−VND yielded VND and RO. From the Lassen plot follows
2 RO=1−VTPET2−VND/VTPET1−VND

[4] = system: sigma-1 receptor (S1R) compared with D2R; conditions: in vitro and in vivo animal studies; cited from earlier work
[5] = system: sigma-1 receptor (S1R) compared with dopamine D3 receptor (D3R); conditions: in vitro and in vivo animal studies; cited from earlier work
[6] = system: Huntington disease patients; conditions: HD patients, 45 mg bid, week 52, PRIDE-HD; cited from earlier work
sigma-1 receptor (S1R) [7] = biological target: T1, sigma-1 receptor (S1R); assay: in vivo; conditions: for Emax: standard error in brackets
Procedure: Two models with Hill coefficient n fixed to 1 or optimized as a third parameter were investigated and characterized by the Akaike information criterion (AIC). Nonlinear parameter estimation was performed with Mathematica12 (Wolfram Research).

D2/D3R = conditions: behaviorally effective doses, [^11C] Raclopride PET; cited from earlier work
[8] = Pharmacokinetic parameters of pridopidine in plasma; conditions: at steady state, 0 to 12 h after oral administration of pridopidine
[9] = model plasma concentration Cavg2-4h (ng/ml), three-parameter Hill equation
[10] = model plasma concentration Cavg2-4h (ng/ml), two-parameter Hill equation (n = 1)
[11] = model weight adjusted dose (mg/kg), three-parameter Hill equation
[12] = model weight adjusted dose (mg/kg), two-parameter Hill equation (n = 1)

T1 sequence (Q99720 whole entry): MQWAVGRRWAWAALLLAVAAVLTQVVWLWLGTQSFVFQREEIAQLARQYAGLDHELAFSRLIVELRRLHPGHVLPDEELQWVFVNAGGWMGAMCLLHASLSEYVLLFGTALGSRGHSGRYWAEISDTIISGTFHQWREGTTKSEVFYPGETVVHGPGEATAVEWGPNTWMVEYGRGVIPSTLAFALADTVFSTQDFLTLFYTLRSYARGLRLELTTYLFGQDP

Structure (SMILES): FCC[C@@H]1OC2(CCN(Cc3ccccc3)CC2)c2ccccc21 [[^18F] fluspidine, (S)-(-)-[^18F] Fluspidine]
- test-retest variability, slope of the linear regression (sigma-1 receptor (S1R) [1]): 0.887 and 1.008
- fraction unbound (plasma proteins): 0.023 ± 0.007
- mean VT at baseline PET (sigma-1 receptor (S1R) [2]; HD (n = 3), cerebellum): 23.52 ± 12.66
- mean VT at baseline PET (sigma-1 receptor (S1R) [2]; HD (n = 3), corpus callosum): 8.89 ± 2.75
- mean VT at baseline PET (sigma-1 receptor (S1R) [2]; HD (n = 3), frontal cortex): 16.32 ± 6.76
- mean VT at baseline PET (sigma-1 receptor (S1R) [2]; HD (n = 3), medulla): 14.75 ± 7.28
- mean VT at baseline PET (sigma-1 receptor (S1R) [2]; HD (n = 3), midbrain): 16.46 ± 7.73
- mean VT at baseline PET (sigma-1 receptor (S1R) [2]; HD (n = 3), pons): 16.10 ± 8.74
- mean VT at baseline PET (sigma-1 receptor (S1R) [2]; HD (n = 3), striatum): 13.59 ± 5.98
- mean VT at baseline PET (sigma-1 receptor (S1R) [2]; HVs (n = 11), cerebellum, mean ± SD): 26.91 ± 4.49
- mean VT at baseline PET (sigma-1 receptor (S1R) [2]; HVs (n = 11), corpus callosum): 11.69 ± 2.40
- mean VT at baseline PET (sigma-1 receptor (S1R) [2]; HVs (n = 11), frontal cortex): 21.38 ± 3.37
- mean VT at baseline PET (sigma-1 receptor (S1R) [2]; HVs (n = 11), medulla): 16.63 ± 2.72
- mean VT at baseline PET (sigma-1 receptor (S1R) [2]; HVs (n = 11), midbrain): 19.31 ± 2.70
- mean VT at baseline PET (sigma-1 receptor (S1R) [2]; HVs (n = 11), pons): 19.13 ± 3.45
- mean VT at baseline PET (sigma-1 receptor (S1R) [2]; HVs (n = 11), striatum): 19.43 ± 2.95
- VND, non-displaceable distribution volume (sigma-1 receptor (S1R) [2]; Lassen plot, baseline vs post-pridopidine PET, patients with Huntington disease, individual subjects): 4.26 and 3.68 and 4.42

Structure (SMILES): CCCN1CCC(c2cccc(S(C)(=O)=O)c2)CC1 [pridopidine]
- S1R occupancy in rat brains (S1R): high S1R occupancy
- mean RO (S1R) (sigma-1 receptor (S1R) [3]; HD patients): 87.4%
- RO (%), sigma-1 receptor occupancy (sigma-1 receptor (S1R) [3]; healthy volunteer (n = 1), single dose 0.5 mg): 17.6%
- RO (%), sigma-1 receptor occupancy (sigma-1 receptor (S1R) [3]; healthy volunteer (n = 1), single dose 1 mg): 41.8%
- RO (%), sigma-1 receptor occupancy (sigma-1 receptor (S1R) [3]; healthy volunteer, individual subject, single dose 45 mg): 87.2%
- RO (S1R), mean (sigma-1 receptor (S1R) [3]; healthy volunteers, 5 mg pridopidine): 78.0 ± 1.7%
- mean RO (S1R) (sigma-1 receptor (S1R) [3]; healthy volunteers): 91.2%
- RO (%), sigma-1 receptor occupancy (sigma-1 receptor (S1R) [3]; healthy volunteers, individual subjects, single dose 5 mg): 76.8% and 79.2%
- RO (%), sigma-1 receptor occupancy (sigma-1 receptor (S1R) [3]; healthy volunteers, individual subjects, single dose 22.5 mg): 84.1% and 89.2% and 86.7%
- RO (%), sigma-1 receptor occupancy (sigma-1 receptor (S1R) [3]; healthy volunteers, individual subjects, single oral dose 90 mg): 88.8% and 89.1% and 95.7%
- RO (%), sigma-1 receptor occupancy (sigma-1 receptor (S1R) [3]; patients with Huntington disease, individual subjects, single dose 90 mg): 80.4% and 93.2% and 88.5%
- fold higher affinity towards S1R compared with D2R [4]: ~ 100 fold
- fold higher affinity towards S1R compared with D3R [5]: ~ 30 fold
- decline from baseline in total functional capacity (TFC) compared with placebo [6]: significantly less decline from baseline
- Emax (sigma-1 receptor (S1R) [7]; model dose (mg), three-parameter Hill equation, healthy volunteers): 0.90 (0.01)
- Emax (sigma-1 receptor (S1R) [7]; model dose (mg), two-parameter Hill equation (n = 1), healthy volunteers): 0.93 (0.02)
- EC90 (sigma-1 receptor (S1R) [7]; [9]): 0.018 µg/mL and 0.01757 µg/mL
- Emax (sigma-1 receptor (S1R) [7]; [9]): 0.89 (0.02)
- EC90 (sigma-1 receptor (S1R) [7]; [10]): 0.028 µg/mL and 0.02852 µg/mL
- Emax (sigma-1 receptor (S1R) [7]; [10]): 0.91 (0.02)
- EC90 (sigma-1 receptor (S1R) [7]; [11]): 0.084 mg/kg
- Emax (sigma-1 receptor (S1R) [7]; [11]): 0.89 (0.02)
- EC90 (sigma-1 receptor (S1R) [7]; [12]): 0.135 mg/kg
- Emax (sigma-1 receptor (S1R) [7]; [12]): 0.93 (0.02)
- Hill coefficient (sigma-1 receptor (S1R) [7]; three-parameter model, all situations (concentration, dose, adjusted weight dose)): > 1
- D2/D3R occupancy in rat brains (D2/D3R): low D2/D3R occupancy

Structure (SMILES): CS(=O)(=O)c1cccc(C2CCNCC2)c1 [TV45065]
- concentration of metabolite in plasma relative to unchanged pridopidine concentration [8]: less than 10%
